Data set [1] deals with patients with type 2 diabetes. The following applies: human, in vivo; for patients who had adverse events: 24 weeks. The source says:
Laboratory results were then reviewed for these particular patients to determine which patients actually had clinically important changes in a given laboratory parameter.

The subject of another data set is patients with T2DM. As to conditions: cited from earlier work.
[2] abbreviates: monotherapy, 100 or 200 mg daily.

Read-outs that look alike come from different tables or passages of the source.

Turning to `CN(C)C(=N)N=C(N)N` [metformin], in data set [1], the “patients who had adverse events” value is 10%.
In the case of `N[C@@H](CC(=O)N1CCn2c(nnc2C(F)(F)F)C1)Cc1cc(F)c(F)cc1F` [sitagliptin, Sitagliptin], the weight gain result in the data set on patients with T2DM (24-week monotherapy studies) is given as “no significant weight gain”. For the same molecule, the “patients achieving a HbA1C of <7%” value with patients with T2DM (24-week, background pioglitazone (30 or 45 mg daily)) is on record as 45.4%. The “mean HbA1C reduction” value with patients with T2DM (24-week, sitagliptin 100 mg daily add-on to pioglitazone (30 or 45 mg daily), mean baseline HbA1C 8.1%) is listed as 0.7%. Further, in the data set on patients with T2DM (setting [2]), the HbA1C result is “significantly reduced” and the hypoglycemia entry was “no significant increase in hypoglycemia”. The “fasting and postprandial glycaemia” value in the data set with patients with T2DM (monotherapy) was “reduced both fasting and postprandial glycaemia”. In addition, the “mean placebo-subtracted reduction in HbA1C” value with patients with T2DM (sitagliptin 100 mg daily added to at least 1,500 mg per day of metformin) was 0.65%. In addition, the “patients achieving a HbA1C of <7%” value in the data set on patients with T2DM (sitagliptin 100 mg daily added to at least 1,500 mg per day of metformin, mean baseline HbA1C 8%) is recorded as 47%. In addition, in data set [1], the “clinically important decreases in any hematological parameter attributable to drug” value is reported as “no patient experienced clinically important decreases”; the “responsibility for clinically meaningful elevations in ALT and AST” value is on record as “not responsible for the variations”; the “patients who had adverse events” value is 8%.

Values taken from US20080064701A1, “Anti-diabetic combinations” (priority 2007, published 2008).
